What is called IC50 is the concentration that gives 50% inhibition.

The text below walks through data of US20250353864A1, “INDAZOLE CONTAINING MACROCYCLES AND THEIR USE” (BLOSSOMHILL THERAPEUTICS, INC., priority 2022, published 2025).

Common to all, as to format: biochemical
One test deals with ALK (Homo sapiens (Human), UniProt Q9UM73). Put plainly: HotSpot radiometric kinase assay, inhibition of ALK kinase activity. The note with it: 10 μM ATP. As to the method: Briefly, specific kinase/substrate pairs along with required cofactors were prepared in reaction buffer; 20 mM Hepes pH 7.5, 10 mM […], 1 mM EGTA, 0.02% Brij35, 0.02 mg/ml BSA, 0.1 mM Na3VO4, 2 mM DTT, 1% DMSO. Compounds were delivered into the reaction, followed […] later by addition of a mixture of ATP (Sigma, St. Louis MO) and ^33P ATP (Perkin Elmer, Waltham MA) to a final concentration of 10 μM. Reactions were carried out at room temperature for 120 min, followed by spotting of the reactions onto P81 ion exchange filter paper (Whatman Inc., Piscataway, NJ). Unbound phosphate was removed by extensive washing of filters in 0.75% phosphoric acid. […] IC50 values and curve fits were obtained using Prism (GraphPad Software).

A further test has as its target EGFR L858R mutant (Homo sapiens (Human), UniProt P00533, L858R). Put plainly: HotSpot radiometric kinase assay, EGFR L858R mutant. The note with it: 10 μM ATP. In outline:
(§1)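 Radiometric filter-binding assay with EGFR mutant kinase/substrate pairs in 20 mM Hepes pH 7.5 with Mg, EGTA, Brij35, BSA, Na3VO4, DTT, 1% DMSO. Compound preincubated ~20 min, then ATP/^33P-ATP added at 10 μM final. Reaction 120 min at room temperature, spotted on P81 paper; IC50 from curve fits.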

The target in a further test is EGFR (D770_N771insNPG) (Homo sapiens (Human), UniProt P00533, INS770NPG). Put plainly: HotSpot radiometric kinase assay, EGFR (D770_N771insNPG). The note with it: 10 μM ATP, read-out: EGFR (Δ770_N771insNPG) IC50. In outline: as §1
The target of another test is EGFR L858R/T790M mutant (Homo sapiens (Human), UniProt P00533, L858R/T790M). Put plainly: HotSpot radiometric kinase assay, EGFR L858R/T790M mutant. The note with it: 10 μM ATP. The method in brief: as §1
The target in another test is CLK2 (Homo sapiens (Human), UniProt P49760). The test can be described thus: Inhibition of CLK2 kinase activity evaluated at Nanosyn (ADP-Glo). The note with it: ADP-Glo luminescence. In outline:
(§2)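 Kinase and substrate in pH 7.5 HEPES buffer (5 mM MgCl2, 0.01% Triton X-100, 0.1% BSA) with compound at 1% DMSO; reaction started with ATP, incubated for an assay-specific time. ADP formed detected by ADP-Glo luminescence; %-inhibition versus DMSO and no-enzyme controls.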

The next test concerns the target CLK3 (Homo sapiens (Human), UniProt P49761). The test can be described thus: Inhibition of CLK3 kinase activity evaluated at Nanosyn (ADP-Glo). The following applies: ADP-Glo luminescence. The method in brief:
as §2
Background: ADP-Glo first removes unused ATP, then detects ADP through luciferase.

Test [1] addresses EGFR Δ746-750/C797S mutant (Homo sapiens (Human), UniProt P00533, C797S/DEL746-750). The test can be described thus: HotSpot radiometric kinase assay, EGFR Δ746-750/C797S mutant. The following applies: 10 μM ATP. The method in brief:
as §1

The target in another test is EGFR Δ746-750 mutant (Homo sapiens (Human), UniProt P00533, DEL746-750). Put plainly: HotSpot radiometric kinase assay, EGFR Δ746-750 mutant. The following applies: 10 μM ATP. The method in brief:
as §1

The target in the next test is CLK4 (Homo sapiens (Human), UniProt Q9HAZ1). The test can be described thus: Inhibition of CLK4 kinase activity evaluated at Nanosyn (ADP-Glo). The note with it: ADP-Glo luminescence. In outline: as §2
Another test deals with EGFR WT (Homo sapiens (Human), UniProt P00533). The test can be described thus: HotSpot radiometric kinase assay (Reaction Biology), EGFR WT. The note with it: 10 μM ATP. In outline:
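Kinase, substrate and cofactors are mixed in 20 mM Hepes pH 7.5 with 10 mM MgCl2, 1 mM EGTA, 2 mM DTT and 1% DMSO. Compound is added, and about 20 min later ATP/33P-ATP (10 μM final) starts a 120-min room-temperature reaction, which is then spotted onto P81 paper.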

The target in another test is CLK1 (Homo sapiens (Human), UniProt P49759). The test can be described thus: Inhibition of CLK1 kinase activity evaluated at Nanosyn (ADP-Glo). The following applies: ADP-Glo luminescence. The method in brief: as §2
For test [2], the target named is EGFR L858R/T790M/C797S mutant (Homo sapiens (Human), UniProt P00533, C797S/L858R/T790M). The test can be described thus: HotSpot radiometric kinase assay, EGFR L858R/T790M/C797S mutant. The note with it: 10 μM ATP. The method in brief:
as §1

EGFR L858R/T790M/C797S mutant, sequence (P00533 25-1210 T790M/C797S/L858R): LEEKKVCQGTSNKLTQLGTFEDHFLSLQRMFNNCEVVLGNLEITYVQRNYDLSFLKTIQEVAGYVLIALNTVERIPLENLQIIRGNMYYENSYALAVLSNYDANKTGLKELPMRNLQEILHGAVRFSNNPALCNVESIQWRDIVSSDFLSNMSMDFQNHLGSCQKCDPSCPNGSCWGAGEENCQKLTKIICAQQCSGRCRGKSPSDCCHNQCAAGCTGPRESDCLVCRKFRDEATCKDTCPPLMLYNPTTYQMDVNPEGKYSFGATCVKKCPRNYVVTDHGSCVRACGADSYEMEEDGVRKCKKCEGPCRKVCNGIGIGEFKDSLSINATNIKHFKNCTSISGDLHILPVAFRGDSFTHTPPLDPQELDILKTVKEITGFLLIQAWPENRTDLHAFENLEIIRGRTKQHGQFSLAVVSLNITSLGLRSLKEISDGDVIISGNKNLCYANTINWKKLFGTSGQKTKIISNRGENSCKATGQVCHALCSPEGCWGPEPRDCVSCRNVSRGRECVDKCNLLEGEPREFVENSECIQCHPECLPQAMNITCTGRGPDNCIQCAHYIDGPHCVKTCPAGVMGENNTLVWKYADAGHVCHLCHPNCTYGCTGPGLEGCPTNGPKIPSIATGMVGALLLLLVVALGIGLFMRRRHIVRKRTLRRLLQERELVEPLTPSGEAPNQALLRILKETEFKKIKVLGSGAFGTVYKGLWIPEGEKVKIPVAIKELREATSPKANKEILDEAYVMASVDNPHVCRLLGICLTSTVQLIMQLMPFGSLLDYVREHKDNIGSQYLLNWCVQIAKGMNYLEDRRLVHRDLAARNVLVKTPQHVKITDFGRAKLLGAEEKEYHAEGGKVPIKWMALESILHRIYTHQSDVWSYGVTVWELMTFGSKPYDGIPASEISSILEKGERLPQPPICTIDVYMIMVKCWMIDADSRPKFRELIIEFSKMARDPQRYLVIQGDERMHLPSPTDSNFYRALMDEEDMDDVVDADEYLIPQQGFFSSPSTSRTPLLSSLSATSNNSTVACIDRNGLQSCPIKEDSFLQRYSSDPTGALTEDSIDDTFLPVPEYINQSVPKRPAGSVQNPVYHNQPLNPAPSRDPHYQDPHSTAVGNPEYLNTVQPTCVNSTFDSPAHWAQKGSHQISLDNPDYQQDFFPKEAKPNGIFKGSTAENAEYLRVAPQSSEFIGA
EGFR Δ746-750 mutant, sequence (P00533 other isoform, or with tags, fused parts or gaps del 1-668/del 746-750 limits assumed): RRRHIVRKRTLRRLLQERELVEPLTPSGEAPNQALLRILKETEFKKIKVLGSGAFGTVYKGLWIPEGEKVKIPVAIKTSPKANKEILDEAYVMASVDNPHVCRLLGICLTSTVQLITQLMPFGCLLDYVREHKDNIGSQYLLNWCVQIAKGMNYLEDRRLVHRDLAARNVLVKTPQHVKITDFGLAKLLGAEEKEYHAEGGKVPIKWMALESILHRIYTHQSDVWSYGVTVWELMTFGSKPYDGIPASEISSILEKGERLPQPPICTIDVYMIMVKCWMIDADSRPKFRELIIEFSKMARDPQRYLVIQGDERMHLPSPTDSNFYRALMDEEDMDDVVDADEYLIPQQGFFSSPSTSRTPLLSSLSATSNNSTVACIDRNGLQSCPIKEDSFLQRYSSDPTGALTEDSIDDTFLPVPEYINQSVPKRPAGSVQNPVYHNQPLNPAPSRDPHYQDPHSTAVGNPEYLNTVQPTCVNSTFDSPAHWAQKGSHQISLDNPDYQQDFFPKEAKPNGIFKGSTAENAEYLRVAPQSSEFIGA
CLK2, sequence (P49760 whole entry): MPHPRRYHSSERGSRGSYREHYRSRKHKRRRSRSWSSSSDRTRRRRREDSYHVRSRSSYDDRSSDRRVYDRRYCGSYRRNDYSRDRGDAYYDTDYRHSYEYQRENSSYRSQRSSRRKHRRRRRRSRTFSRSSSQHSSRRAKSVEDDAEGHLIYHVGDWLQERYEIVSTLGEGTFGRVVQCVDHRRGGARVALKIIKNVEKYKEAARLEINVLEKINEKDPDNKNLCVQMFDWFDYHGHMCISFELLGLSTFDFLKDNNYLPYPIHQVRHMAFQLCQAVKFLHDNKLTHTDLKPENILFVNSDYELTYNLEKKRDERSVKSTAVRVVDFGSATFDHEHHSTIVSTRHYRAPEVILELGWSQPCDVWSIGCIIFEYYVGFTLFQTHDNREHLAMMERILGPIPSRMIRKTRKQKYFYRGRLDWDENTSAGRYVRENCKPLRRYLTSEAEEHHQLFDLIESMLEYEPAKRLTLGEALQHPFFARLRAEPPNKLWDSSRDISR
CLK4, sequence (Q9HAZ1 whole entry): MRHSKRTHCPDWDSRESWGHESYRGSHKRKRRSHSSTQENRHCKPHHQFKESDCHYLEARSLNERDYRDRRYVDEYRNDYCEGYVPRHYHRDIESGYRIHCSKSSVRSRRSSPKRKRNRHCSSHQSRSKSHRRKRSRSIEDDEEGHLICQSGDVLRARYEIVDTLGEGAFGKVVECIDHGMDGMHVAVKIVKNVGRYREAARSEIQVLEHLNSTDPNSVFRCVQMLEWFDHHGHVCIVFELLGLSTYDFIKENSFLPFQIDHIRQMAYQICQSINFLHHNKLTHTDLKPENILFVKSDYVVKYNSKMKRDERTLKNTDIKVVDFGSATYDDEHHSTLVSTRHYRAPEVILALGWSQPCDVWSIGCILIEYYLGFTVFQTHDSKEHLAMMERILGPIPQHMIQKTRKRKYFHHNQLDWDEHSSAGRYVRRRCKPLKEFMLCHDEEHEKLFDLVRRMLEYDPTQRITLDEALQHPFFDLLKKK
CLK3, sequence (P49761 whole entry): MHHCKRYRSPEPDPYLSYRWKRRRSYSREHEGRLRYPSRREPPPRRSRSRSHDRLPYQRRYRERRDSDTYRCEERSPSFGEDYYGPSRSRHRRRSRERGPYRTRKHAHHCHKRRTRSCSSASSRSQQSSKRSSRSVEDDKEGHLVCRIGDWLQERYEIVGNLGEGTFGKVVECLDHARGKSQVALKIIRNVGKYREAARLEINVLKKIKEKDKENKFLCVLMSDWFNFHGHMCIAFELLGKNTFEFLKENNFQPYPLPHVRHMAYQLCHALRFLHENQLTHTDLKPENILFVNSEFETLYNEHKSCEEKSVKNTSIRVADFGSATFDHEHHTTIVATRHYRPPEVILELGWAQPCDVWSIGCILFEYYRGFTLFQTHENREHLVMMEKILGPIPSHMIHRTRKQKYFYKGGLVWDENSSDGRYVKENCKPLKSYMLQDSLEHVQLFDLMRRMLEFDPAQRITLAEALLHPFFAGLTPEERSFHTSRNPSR
EGFR L858R/T790M mutant, sequence (P00533 25-1210 T790M/L858R): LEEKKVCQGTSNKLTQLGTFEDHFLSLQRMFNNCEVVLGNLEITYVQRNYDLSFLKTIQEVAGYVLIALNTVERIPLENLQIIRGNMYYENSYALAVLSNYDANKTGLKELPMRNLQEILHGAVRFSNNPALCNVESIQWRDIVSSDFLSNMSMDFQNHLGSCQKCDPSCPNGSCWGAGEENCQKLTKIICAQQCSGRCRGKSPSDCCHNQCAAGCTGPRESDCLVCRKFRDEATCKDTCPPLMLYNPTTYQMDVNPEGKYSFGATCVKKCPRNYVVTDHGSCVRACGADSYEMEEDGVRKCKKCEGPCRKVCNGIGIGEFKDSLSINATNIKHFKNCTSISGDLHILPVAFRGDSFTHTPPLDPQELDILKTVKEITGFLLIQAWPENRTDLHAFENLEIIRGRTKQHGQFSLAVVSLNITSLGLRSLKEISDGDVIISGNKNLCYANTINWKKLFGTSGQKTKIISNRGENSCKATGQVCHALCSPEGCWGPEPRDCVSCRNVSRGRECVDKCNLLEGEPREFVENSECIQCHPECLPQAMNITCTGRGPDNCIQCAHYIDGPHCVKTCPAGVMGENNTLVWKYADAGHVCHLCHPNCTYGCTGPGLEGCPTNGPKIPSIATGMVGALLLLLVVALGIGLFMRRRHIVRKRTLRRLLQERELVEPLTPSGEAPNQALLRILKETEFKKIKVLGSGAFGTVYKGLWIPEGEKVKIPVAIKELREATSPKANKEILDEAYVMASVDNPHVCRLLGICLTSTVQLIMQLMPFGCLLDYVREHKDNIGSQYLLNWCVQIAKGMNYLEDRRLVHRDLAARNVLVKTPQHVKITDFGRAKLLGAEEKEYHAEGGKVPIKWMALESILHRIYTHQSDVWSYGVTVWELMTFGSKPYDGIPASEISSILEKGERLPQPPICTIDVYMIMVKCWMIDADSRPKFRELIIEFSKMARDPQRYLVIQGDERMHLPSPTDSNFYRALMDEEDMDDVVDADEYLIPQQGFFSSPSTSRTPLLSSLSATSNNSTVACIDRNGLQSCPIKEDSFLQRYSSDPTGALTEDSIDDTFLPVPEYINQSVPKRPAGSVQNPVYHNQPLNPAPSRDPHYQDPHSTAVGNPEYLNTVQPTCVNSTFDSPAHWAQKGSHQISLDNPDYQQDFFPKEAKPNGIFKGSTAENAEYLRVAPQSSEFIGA
CLK1, sequence (P49759 whole entry): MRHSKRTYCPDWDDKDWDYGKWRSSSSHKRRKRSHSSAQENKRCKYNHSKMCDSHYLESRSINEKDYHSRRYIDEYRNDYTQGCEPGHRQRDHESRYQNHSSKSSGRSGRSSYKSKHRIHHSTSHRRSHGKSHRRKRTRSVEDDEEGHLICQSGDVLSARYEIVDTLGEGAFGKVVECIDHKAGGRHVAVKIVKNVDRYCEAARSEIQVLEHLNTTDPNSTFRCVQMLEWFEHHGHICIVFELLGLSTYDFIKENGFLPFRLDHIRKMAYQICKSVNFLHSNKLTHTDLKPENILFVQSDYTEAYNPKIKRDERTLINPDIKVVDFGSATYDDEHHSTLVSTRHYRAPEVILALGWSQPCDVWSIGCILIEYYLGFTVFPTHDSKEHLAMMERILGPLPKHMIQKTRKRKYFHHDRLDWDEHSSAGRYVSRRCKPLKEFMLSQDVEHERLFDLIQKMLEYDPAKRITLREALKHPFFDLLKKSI

For the molecule `C[C@H]1CN(C)Cc2c(c(C#N)nn2C)/C=C/c2n[nH]c3ccc(cc23)-c2cnn(C)c2O1` [Example 159, (10S,17E)-8,10,12,14-tetramethyl-2,10,11,12,13,14-hexahydro-8H-3,5-ethenotripyrazolo[3,4-f:3′,4′-j:4″,3″-n][1,4]oxazacyclopentadecine-16-carbonitrile], the concentration for half-maximal inhibition (IC50) worked out at 3.72 nM against ALK; 34.7 nM against EGFR L858R mutant; 116 nM on EGFR (D770_N771insNPG); 1.54 nM against EGFR L858R/T790M mutant; 0.07 nM at CLK2; 1000 nM on CLK3. Moreover, the IC50 in test [1] is 14.1 nM; against EGFR Δ746-750 mutant it was 27 nM; on CLK4 it was 0.38 nM; on EGFR WT, 160 nM; on CLK1 it was 0.14 nM; in [2], 0.74 nM.

In the case of `Cc1c2c(nn1C)CN(C)C[C@H](C)Oc1c(cnn1C)-c1ccc3[nH]nc(c3c1)/C=C/2` [Example 58, (10S,17E)-8,10,12,15,16-pentamethyl-2,10,11,12,13,15-hexahydro-8H-3,5-ethenotripyrazolo[3,4-f:3′,4′-j:4″,3″- n][1,4]oxazacyclopentadecine], the IC50 on ALK is 4.79 nM; at EGFR L858R mutant, 9.29 nM; at EGFR (D770_N771insNPG), 222 nM; at CLK2, 0.38 nM; on CLK3, 160 nM; in test [1] it was 7.29 nM. Further, the 50% inhibitory concentration (IC50) against EGFR Δ746-750 mutant came out at 11.1 nM; at CLK4, 0.53 nM; against EGFR WT, 49.2 nM; on CLK1, 0.2 nM; in test [2] it was 1.57 nM.

Consider `CCN1Cc2c(c(OC(C)C)nn2CC(N)=O)/C=C/c2n[nH]c3ccc(cc23)-c2cnn(C)c2O[C@@H](C)C1` [Example 232, 2-{(10S,17E)-12-ethyl-8,10-dimethyl-16-[(propan-2-yl)oxy]-2,8,10,11,12,13-hexahydro-14H-3,5-ethenotripyrazolo[3,4-f:3′,4′-j:4″,3″-n][1,4]oxazacyclopentadecin-14-yl}acetamide], for which the IC50 was found to be 0.9 nM at ALK; 0.22 nM at EGFR L858R mutant; 1.39 nM on EGFR (D770_N771insNPG); 0.13 nM on EGFR L858R/T790M mutant; 0.45 nM on CLK2; 42 nM on CLK3. For the same molecule, the IC50 amounted to 0.55 nM in test [1]; 0.08 nM on EGFR Δ746-750 mutant; 1.49 nM at CLK4; 0.41 nM at EGFR WT; 0.77 nM on CLK1; 0.11 nM in test [2].

Take `CCN1Cc2c(c(OC(C)C)nn2CCO)/C=C/c2n[nH]c3cc(F)c(cc23)-c2cnn(C)c2O[C@@H](C)C1` [Example 216, 2-{(10S,17E)-12-ethyl-19-fluoro-8,10-dimethyl-16-[(propan-2-yl)oxy]-2,8,10,11,12,13-hexahydro-14H-3,5-ethenotripyrazolo[3,4-f:3′,4′-j:4″,3″- n][1,4]oxazacyclopentadecin-14-yl}ethan-1-ol]: the IC50 was 2.04 nM against ALK; 2.22 nM on EGFR L858R mutant; 28.9 nM on EGFR (D770_N771insNPG); 0.44 nM at EGFR L858R/T790M mutant; 1.28 nM at CLK2; 115 nM on CLK3. Also, the IC50 in test [1] was 0.63 nM; against EGFR Δ746-750 mutant, 0.47 nM; on CLK4, 5.39 nM; on EGFR WT, 2.43 nM; on CLK1, 2.02 nM; in [2], 0.37 nM.

`Cc1nn(C)c2c1/C=C/c1n[nH]c3ccc(cc13)-c1cnn(C)c1O[C@@H](C)CN(C)C2` [Example 120, (10S,17E)-8,10,12,14,16-pentamethyl-2,10,11,12,13,14-hexahydro-8H-3,5-ethenotripyrazolo[3,4-f:3′,4′-j:4″,3″- n][1,4]oxazacyclopentadecine]: the IC50 on ALK came to 1.82 nM; on EGFR L858R mutant, 7.91 nM; on EGFR (D770_N771insNPG), 99.8 nM; at EGFR L858R/T790M mutant, 0.33 nM; at CLK2, 0.08 nM; on CLK3 it was 112 nM. Also, the IC50 is 5.8 nM in test [1]; 7.76 nM against EGFR Δ746-750 mutant; 0.27 nM on CLK4; 41.3 nM on EGFR WT; 0.12 nM on CLK1; 2.62 nM in test [2].

As for `CCOc1nn(CCO)c2c1/C=C/c1n[nH]c3ccc(cc13)-c1cnn(C)c1O[C@@H](C)CN(C)C2` [Example 119, 2-[(10S,17E)-16-ethoxy-8,10,12-trimethyl-2,8,10,11,12,13-hexahydro-14H-3,5-ethenotripyrazolo[3,4-f:3′,4′-j:4″,3″-n][1,4]oxazacyclopentadecin-14-yl]ethan-1-ol], the IC50 at ALK was 1.05 nM; against EGFR L858R mutant it was 0.61 nM; on EGFR (D770_N771insNPG), 8.5 nM; on EGFR L858R/T790M mutant it was 0.26 nM; at CLK2 it was 0.04 nM; on CLK3 it was 19.4 nM. The IC50 in test [1] worked out at 1.25 nM; against EGFR Δ746-750 mutant, 0.63 nM; at CLK4, 0.33 nM; on EGFR WT, 2.34 nM; on CLK1, 0.14 nM; in test [2], 2.12 nM.

Turning to `Cn1nc(C#N)c2c1COCCOc1c(cnn1C)-c1ccc3[nH]nc(c3c1)/C=C/2` [Example 302, (17E)-8,14-dimethyl-2,8,10,11,13,14-hexahydro-3,5-etheno[1,4]dioxacyclopentadecino[10,11-c:15,14-c′:6,7-c″]tripyrazole-16-carbonitrile], the IC50 against ALK turned out to be 19.9 nM; at CLK2, 1000 nM; at CLK3, 1.23 nM; at CLK4, 1.33 nM; on CLK1 it was 1.19 nM.

Take `CCc1nn(C)c2c1/C=C/c1n[nH]c3ccc(cc13)-c1cnn(C)c1OCCOC2` [Example 300, (17E)-16-ethyl-8,14-dimethyl-2,8,10,11,13,14-hexahydro-3,5-etheno[1,4]dioxacyclopentadecino[10,11-c:15,14-c′:6,7-c″]tripyrazole]: the IC50 was found to be 5.79 nM on ALK; 36.5 nM on CLK2; 0.862 nM at CLK3; 0.225 nM on CLK4; 0.332 nM on CLK1.

Consider `CC(C)Oc1nn(CCO)c2c1/C=C/c1n[nH]c3ccc(cc13)-c1cnn(C)c1O[C@@H](C(F)F)CN(C)C2` (single isomer, unassigned) [Ex. 275], for which the IC50 at ALK was determined as 1.46 nM; on CLK2, 1.03 nM; on CLK3, 241 nM; on CLK4, 2.25 nM; at CLK1, 0.8 nM.

As to `CCN1Cc2c(c(OC(C)C)nn2C[C@H](C)O)/C=C/c2n[nH]c3ccc(cc23)-c2cnn(C)c2O[C@@H](C)C1` [Ex. 280, (2S)-1-{(10S,17E)-12-ethyl-8,10-dimethyl-16-[(propan-2-yl)oxy]-2,8,10,11,12,13-hexahydro-14H-3,5-ethenotripyrazolo[3,4-f:3′,4′-j:4″,3″-n][1,4]oxazacyclopentadecin-14-yl}propan-2-ol], the IC50 on ALK came out at 1.08 nM; at CLK2, 0.24 nM; at CLK3, 242 nM; on CLK4 it was 1.96 nM; at CLK1, 0.52 nM.

Consider `CC(C)Oc1nn(CCO)c2c1/C=C/c1n[nH]c3cc(F)c(cc13)-c1cnn(C)c1O[C@@H](C)[C@H]1CCCN1C2` (single isomer, unassigned) [Example 256], for which the 50% inhibitory concentration (IC50) on ALK is 2 nM; on CLK2 it was 1.35 nM; on CLK3, 94.5 nM; on CLK4, 4.05 nM; at CLK1 it was 1.38 nM.
